# Legend:
# Type in all cases: in vivo
# [1] = test system: Pythium; assay: Corn field trial, Pythium-infected seeds, seed treatment, soil not inoculated (Example 1); parameters: Density: unit not given here; conditions: for Vigor: subjective score, lower more favorable
# From the text: Unlike other experiments disclosed herein, the soil for the experiment of EXAMPLE 1 was not inoculated with Pythium. Uninfected untreated, and Pythium-infected untreated seeds served as controls. Triadimenol, 15% w/v, is a systemic broad-spectrum fungicide used for cereal seed treatment, but has no activity against Pythium spp. Metalaxyl, 28.35% w/v, provides systemic protection for the seed, roots, and emerging plants against Pythium, systemic downy mildew, and Phytophthora. For corn, the industry standard dosage of metalaxyl is 2 grams of active ingredient per 100 kilograms of seed (2 GA/100 Kg). Saponin, 49.65% v/v extract of Chenopodium quinoa saponins, contained approximately equimolar amounts of triterpene bidesmosidic glycosides of oleanolic acid, hederagenin, and phytolaccagenic acid. […] In TABLE 1, “Vigor” represents a subjective measure of plant health and is based on uniformity, consistent plant mass, and consistent plant spacing, with lower scores being more favorable than higher scores. The data of TABLE 1 are shown graphically in FIGS. 1A and 1B. As shown by TABLE 1 and FIGS. 1A and 1B, the count and the density increased—over time—for all treatment conditions. The relative density, however, decreased over time for the […] and metalaxyl (2 GA/100 kg) categories. The relative density remained the same for the untreated/uninfected category because it provided the reference point (i.e., the relative densities were calculated with reference to the untreated/uninfected category).
# [2] = test system: Pythium; assay: Cotton field trial, Pythium-infected seeds, seed treatment, control or Pythium-inoculated soil (Example 2)
# From the text: The seeds were planted in a field, either in soil that had been inoculated with Pythium (Soil Inoc. with Pythium), or in soil that had not been inoculated with Pythium (Ctrl.), then allowed to grow. Concentrations and compositions of triadimenol, metalaxyl, and saponin are the same as given in Example 1. For cotton, the industry standard dosage of metalaxyl is 15.5 grams of active ingredient per 100 kilograms of seed (15.5 GA/100 Kg). […] The data of TABLE 2 are shown graphically in FIG. 2. The relative densities for the data of TABLE 2 and FIG. 2 were calculated with reference to the 15.5 GA/100 Kg metalaxyl category. As shown by TABLE 2 and FIG. 2, inoculation of the soil with Pythium was correlated with a general decrease in cotton seedling count and density (compare Ctrl. versus Inoc.).
# [3] = test system: Pythium; assay: Cucumber field trial, Pythium-infected seeds, seed treatment, control or Pythium-inoculated soil (Example 3); parameters: Density: unit not given here
# From the text: The seeds were planted in a field, either in soil that had been inoculated with Pythium (Soil Inoc. with Pythium), or in soil that had not been inoculated with Pythium (Ctrl.), then allowed to grow. Concentrations and compositions of triadimenol, metalaxyl, and saponin are the same as given in Example 1. For cucumber, the industry standard dosage of metalaxyl is 15.5 grams of active ingredient per 100 kilograms of seed (15.5 GA/100 Kg). […] The data of TABLE 3 are shown graphically in FIG. 3. The relative densities for the data of TABLE 3 and FIG. 3 were calculated with reference to the 31 GA/100 Kg metalaxyl category. As shown by TABLE 3 and FIG. 3, inoculation of the soil with Pythium was correlated with a general decrease in cucumber seedling count, density, and relative density (compare Ctrl. versus Inoc.).
# [4] = test system: Pythium; assay: Corn hybrids greenhouse trial, Pythium-infected seeds, seed treatment (Example 4)
# From the text: Concentrations and compositions of triadimenol, metalaxyl, and saponin are the same as given in Example 1. The data of TABLE 4 are shown graphically in FIGS. 4A and 4B. As shown by TABLE 4 and FIGS. 4A and 4B, pre-treatment of both varieties of corn seeds with 1 GA/100 Kg metalaxyl and 0.6 GA/100 Kg yielded counts similar to those achieved from pre-treatment of seeds with either 2 GA/100 Kg metalaxyl (the industry standard dose for corn) or 7.5 GA/100 Kg metalaxyl.
# [5] = test system: Pythium ultimum; assay: Cotton varieties greenhouse trial, metalaxyl-resistant Pythium ultimum (Example 5)
# From the text: Two different varieties of cotton seedlings (Variety A, and Variety B) that were infected with Pythium ultimum were exposed to various rates of metalaxyl, saponins, or metalaxyl+Saponin, and then allowed to grow in a greenhouse to determine whether the effects observed in the field could be reproduced in a greenhouse setting. This particular strain of Pythium ultimum was shown previously to have a mid-degree of resistance to seed treatments containing metalaxyl and/or L-metalaxyl. […] The stand counts from Variety B show a similar trend with the 1 GA/100 Kg rate of metalaxyl (see FIG. 5B).
# [6] = Metalaxyl 7.5 GA/100 Kg, 30 DAA
# [7] = Metalaxyl 7.5 GA/100 Kg, 46 DAA
# [8] = Metalaxyl 15.5 GA/100 Kg, 34 DAA, Ctrl. soil
# [9] = Metalaxyl 15.5 GA/100 Kg, 34 DAA, Soil Inoc. with Pythium
# [10] = Metalaxyl 15.5 GA/100 Kg, 46 DAA, Ctrl. soil
# [11] = Metalaxyl 15.5 GA/100 Kg, 46 DAA, Soil Inoc. with Pythium
# [12] = Metalaxyl 31 GA/100 Kg, 34 DAA, Ctrl. soil
# [13] = Metalaxyl 31 GA/100 Kg, 34 DAA, Soil Inoc. with Pythium
# [14] = Metalaxyl 31 GA/100 Kg, 46 DAA, Ctrl. soil
# [15] = Metalaxyl 31 GA/100 Kg, 46 DAA, Soil Inoc. with Pythium
# [16] = Metalaxyl 15.5 GA/100 Kg, 18 DAA, Ctrl. soil
# [17] = Metalaxyl 15.5 GA/100 Kg, 18 DAA, Soil Inoc. with Pythium
# [18] = Metalaxyl 15.5 GA/100 Kg, 33 DAA, Ctrl. soil
# [19] = Metalaxyl 31 GA/100 Kg, 18 DAA, Ctrl. soil
# [20] = Metalaxyl 31 GA/100 Kg, 18 DAA, Soil Inoc. with Pythium
# [21] = Metalaxyl 31 GA/100 Kg, 33 DAA, Ctrl. soil
# [22] = Metalaxyl 31 GA/100 Kg, 33 DAA, Soil Inoc. with Pythium
# [23] = Metalaxyl 7.5 GA/100 Kg, Day 14
structure (smiles),measurement,setting,value
COCC(=O)N(c1c(C)cccc1C)C(C)C(=O)OC (centres unmarked) [Metalaxyl],Count,"[1]; Metalaxyl 2 GA/100 Kg, 30 DAA",37
same,Density,"[1]; Metalaxyl 2 GA/100 Kg, 30 DAA",46.6
same,Relative Density,"[1]; Metalaxyl 2 GA/100 Kg, 30 DAA",124.2
same,Count,"[1]; Metalaxyl 2 GA/100 Kg, 46 DAA",73
same,Density,"[1]; Metalaxyl 2 GA/100 Kg, 46 DAA",90.9
same,Relative Density,"[1]; Metalaxyl 2 GA/100 Kg, 46 DAA",117.8
same,Vigor,"[1]; Metalaxyl 2 GA/100 Kg, 46 DAA",3.75
same,Count,[1]; [6],34
same,Density,[1]; [6],42.8
same,Relative Density,[1]; [6],114.2
same,Count,[1]; [7],73
same,Density,[1]; [7],91.6
same,Relative Density,[1]; [7],118.6
same,Vigor,[1]; [7],3.5
same,Relative Density,"[2]; Metalaxyl 15.5 GA/100 Kg (reference), 34 DAA, Ctrl. soil",100
same,Relative Density,"[2]; Metalaxyl 15.5 GA/100 Kg (reference), 34 DAA, Soil Inoc. with Pythium",100
same,Relative Density,"[2]; Metalaxyl 15.5 GA/100 Kg (reference), 46 DAA, Ctrl. soil",100
same,Relative Density,"[2]; Metalaxyl 15.5 GA/100 Kg (reference), 46 DAA, Soil Inoc. with Pythium",100
same,Count,[2]; [8],37
same,Density,[2]; [8],74
same,Count,[2]; [9],25
same,Density,[2]; [9],50
same,Count,[2]; [10],37.5
same,Density,[2]; [10],75
same,Count,[2]; [11],24.5
same,Density,[2]; [11],49
same,Count,[2]; [12],38
same,Density,[2]; [12],76
same,Relative Density,[2]; [12],102.7
same,Count,[2]; [13],26.5
same,Density,[2]; [13],53
same,Relative Density,[2]; [13],106
same,Count,[2]; [14],37
same,Density,[2]; [14],74
same,Relative Density,[2]; [14],98.7
same,Count,[2]; [15],24.5
same,Density,[2]; [15],49
same,Relative Density,[2]; [15],100
same,Count,[3]; [16],42.5
same,Density,[3]; [16],85
same,Relative Density,[3]; [16],121.4
same,Count,[3]; [17],26
same,Density,[3]; [17],52
same,Relative Density,[3]; [17],89.7
same,Count,[3]; [18],41.8
same,Density,[3]; [18],83.5
same,Relative Density,[3]; [18],122.8
same,Relative Density,"[3]; Metalaxyl 31 GA/100 Kg (reference), 18 DAA, Ctrl. soil",100
same,Relative Density,"[3]; Metalaxyl 31 GA/100 Kg (reference), 18 DAA, Soil Inoc. with Pythium",100
same,Relative Density,"[3]; Metalaxyl 31 GA/100 Kg (reference), 33 DAA, Ctrl. soil",100
same,Count,[3]; [19],35
same,Density,[3]; [19],70
same,Count,[3]; [20],29
same,Density,[3]; [20],58
same,Count,[3]; [21],34
same,Density,[3]; [21],68
same,Count,[3]; [22],8.3
same,Density,[3]; [22],16.5
same,Relative Density,[3]; [22],31.4
same,"Count, Hybrid A","[4]; Metalaxyl 2 GA/100 Kg, Day 2",92
same,"Count, Hybrid B","[4]; Metalaxyl 2 GA/100 Kg, Day 2",74
same,"Count, Hybrid A","[4]; Metalaxyl 2 GA/100 Kg, Day 7",98
same,"Count, Hybrid B","[4]; Metalaxyl 2 GA/100 Kg, Day 7",88
same,"Count, Hybrid A","[4]; Metalaxyl 2 GA/100 Kg, Day 14",98
same,"Count, Hybrid B","[4]; Metalaxyl 2 GA/100 Kg, Day 14",88
same,"Count, Hybrid A","[4]; Metalaxyl 7.5 GA/100 Kg, Day 2",94
same,"Count, Hybrid B","[4]; Metalaxyl 7.5 GA/100 Kg, Day 2",64
same,"Count, Hybrid A","[4]; Metalaxyl 7.5 GA/100 Kg, Day 7",96
same,"Count, Hybrid B","[4]; Metalaxyl 7.5 GA/100 Kg, Day 7",94
same,"Count, Hybrid A",[4]; [23],96
same,"Count, Hybrid B",[4]; [23],98
same,"Count, Variety A","[5]; Metalaxyl 1 GA/100 Kg, Day 6",76
same,"Count, Variety B","[5]; Metalaxyl 1 GA/100 Kg, Day 6",77
same,"Count, Variety A","[5]; Metalaxyl 1 GA/100 Kg, Day 14",57
same,"Count, Variety B","[5]; Metalaxyl 1 GA/100 Kg, Day 14",26
same,"Count, Variety A","[5]; Metalaxyl 1 GA/100 Kg, Day 19",24
same,"Count, Variety B","[5]; Metalaxyl 1 GA/100 Kg, Day 19",5
same,"Count, Variety A","[5]; Metalaxyl 5 GA/100 Kg, Day 6",70
same,"Count, Variety B","[5]; Metalaxyl 5 GA/100 Kg, Day 6",94
same,"Count, Variety A","[5]; Metalaxyl 5 GA/100 Kg, Day 14",73
same,"Count, Variety B","[5]; Metalaxyl 5 GA/100 Kg, Day 14",84
same,"Count, Variety A","[5]; Metalaxyl 5 GA/100 Kg, Day 19",49
same,"Count, Variety B","[5]; Metalaxyl 5 GA/100 Kg, Day 19",45
same,"Count, Variety A","[5]; Metalaxyl 10 GA/100 Kg, Day 6",73.75
same,"Count, Variety B","[5]; Metalaxyl 10 GA/100 Kg, Day 6",83
same,"Count, Variety A","[5]; Metalaxyl 10 GA/100 Kg, Day 14",77.5
same,"Count, Variety B","[5]; Metalaxyl 10 GA/100 Kg, Day 14",85
same,"Count, Variety A","[5]; Metalaxyl 10 GA/100 Kg, Day 19",72.5
same,"Count, Variety B","[5]; Metalaxyl 10 GA/100 Kg, Day 19",68
same,"Count, Variety A","[5]; Metalaxyl 15 GA/100 Kg, Day 6",60
same,"Count, Variety B","[5]; Metalaxyl 15 GA/100 Kg, Day 6",83
same,"Count, Variety A","[5]; Metalaxyl 15 GA/100 Kg, Day 14",81.25
same,"Count, Variety B","[5]; Metalaxyl 15 GA/100 Kg, Day 14",80
same,"Count, Variety A","[5]; Metalaxyl 15 GA/100 Kg, Day 19",36.25
same,"Count, Variety B","[5]; Metalaxyl 15 GA/100 Kg, Day 19",62
